In the data set the test system is CCRIS mutagenicity, Ames/micronucleus/aberration tests. Description: CCRIS mutagenicity studies.
[1] abbreviates: Test System: AMES SALMONELLA TYPHIMURIUM, Strain/Indicator: TA97, Metabolic Activation: NONE, Method: PREINCUBATION
Setting [2] is: Test System: AMES SALMONELLA TYPHIMURIUM, Strain/Indicator: TA98, Metabolic Activation: NONE, Method: PREINCUBATION
The mark [3] stands for this setting: Test System: AMES SALMONELLA TYPHIMURIUM, Strain/Indicator: TA100, Metabolic Activation: NONE, Method: PREINCUBATION

Activity calls are given as the source filed them. How the calls were made is not given here. Where a SMILES comes first, the peptide text is derived from it.

For the compound `Cc1cc(=O)[nH]c(=S)[nH]1`, the mutagenic call by setting is: (Test System: AMES SALMONELLA TYPHIMURIUM, Strain/Indicator: TA97, Metabolic Activation: HAMSTER, LIVER, S-9, AROCLOR 1254 (10 OR 30%), Method: PREINCUBATION) “inactive; negative”; under setting [1], “inactive; negative”; (Test System: AMES SALMONELLA TYPHIMURIUM, Strain/Indicator: TA97, Metabolic Activation: RAT, LIVER, S-9, AROCLOR 1254 (10 OR 30%), Method: PREINCUBATION) “inactive; negative”; (Test System: AMES SALMONELLA TYPHIMURIUM, Strain/Indicator: TA98, Metabolic Activation: HAMSTER, LIVER, S-9, AROCLOR 1254 (10 OR 30%), Method: PREINCUBATION) “inactive; negative”; under setting [2], “inactive; negative”; (Test System: AMES SALMONELLA TYPHIMURIUM, Strain/Indicator: TA98, Metabolic Activation: RAT, LIVER, S-9, AROCLOR 1254 (10 OR 30%), Method: PREINCUBATION) “inactive; negative”. For the same compound, the mutagenic call was “inactive; negative” (Test System: AMES SALMONELLA TYPHIMURIUM, Strain/Indicator: TA100, Metabolic Activation: HAMSTER, LIVER, S-9, AROCLOR 1254 (10%), Method: PREINCUBATION); “inactive; negative” (Test System: AMES SALMONELLA TYPHIMURIUM, Strain/Indicator: TA100, Metabolic Activation: HAMSTER, LIVER, S-9, AROCLOR 1254 (30%), Method: PREINCUBATION); “inactive; negative” under setting [3]; “inactive; negative” (Test System: AMES SALMONELLA TYPHIMURIUM, Strain/Indicator: TA100, Metabolic Activation: RAT, LIVER, S-9, AROCLOR 1254 (10%), Method: PREINCUBATION); “inactive; negative” (Test System: AMES SALMONELLA TYPHIMURIUM, Strain/Indicator: TA100, Metabolic Activation: RAT, LIVER, S-9, AROCLOR 1254 (30%), Method: PREINCUBATION); “inactive; negative” (Test System: AMES SALMONELLA TYPHIMURIUM, Strain/Indicator: TA1535, Metabolic Activation: HAMSTER, LIVER, S-9, AROCLOR 1254 (10 OR 30%), Method: PREINCUBATION). The mutagenic call was “inactive; negative” (Test System: AMES SALMONELLA TYPHIMURIUM, Strain/Indicator: TA1535, Metabolic Activation: NONE, Method: PREINCUBATION) and “inactive; negative” (Test System: AMES SALMONELLA TYPHIMURIUM, Strain/Indicator: TA1535, Metabolic Activation: RAT, LIVER, S-9, AROCLOR 1254 (10 OR 30%), Method: PREINCUBATION).

Consider `COC(=O)[C@H](Cc1ccccc1)NC(=O)[C@@H](N)CC(=O)O` (H-Asp-Phe-OMe), for which the mutagenic call is “inactive; negative” (End Point: In vivo micronucleus, Test System: Bone marrow polychromatic erythrocytes, Species: Rat, Strain/Sex: F344/N, Male, Route: Oral); “inactive; negative” (End Point: In vivo micronucleus, Test System: Peripheral blood normochromatic erythrocytes, Species: Mouse, Strain/Sex: B6.129-Cdkn2atm1Rdp (N2) Cdkn2a deficient/Female, Route: Oral); “inactive; negative” (End Point: In vivo micronucleus, Test System: Peripheral blood normochromatic erythrocytes, Species: Mouse, Strain/Sex: B6.129-Cdkn2atm1Rdp (N2) Cdkn2a deficient/Male, Route: Oral); “active; positive (significant trend test and significant (p=0.0004) increase in frequenc” (End Point: In vivo micronucleus, Test System: Peripheral blood normochromatic erythrocytes, Species: Mouse, Strain/Sex: B6.129-Trp53tm1Brd (N5) p53 Haploinsufficient/Female, Route: Oral); “inactive; negative” (End Point: In vivo micronucleus, Test System: Peripheral blood normochromatic erythrocytes, Species: Mouse, Strain/Sex: B6.129-Trp53tm1Brd (N5) p53 Haploinsufficient/Male, Route: Oral); “inactive; negative” (End Point: In vivo micronucleus, Test System: Peripheral blood normochromatic erythrocytes, Species: Mouse, Strain/Sex: FVB Tg.Ac hemizygous/Female, Route: Oral). The mutagenic call is “inactive; negative” (End Point: In vivo micronucleus, Test System: Peripheral blood normochromatic erythrocytes, Species: Mouse, Strain/Sex: FVB Tg.Ac hemizygous/Male, Route: Oral); “inactive; negative” (Test System: Ames Salmonella typhimurium, Strain/Indicator: TA97, Metabolic Activation: Hamster, liver, S-9, Aroclor 1254, 10 and 30%, Method: Preincubation); “inactive; negative” (Test System: Ames Salmonella typhimurium, Strain/Indicator: TA97, Metabolic Activation: None, Method: Preincubation); “active; positive in two trials with 30% s-9” (Test System: Ames Salmonella typhimurium, Strain/Indicator: TA97, Metabolic Activation: Rat, liver, S-9, Aroclor 1254 (10% or 30%), Method: Preincubation); “inactive; negative” (Test System: Ames Salmonella typhimurium, Strain/Indicator: TA98, Metabolic Activation: Hamster, liver, S-9, Aroclor 1254, 10 and 30%, Method: Preincubation); “inactive; negative” (Test System: Ames Salmonella typhimurium, Strain/Indicator: TA98, Metabolic Activation: None, Method: Preincubation). Further, the mutagenic call was “inactive; negative” (Test System: Ames Salmonella typhimurium, Strain/Indicator: TA98, Metabolic Activation: Rat, liver, S-9, Aroclor 1254, 10 and 30%, Method: Preincubation); “inactive; negative” (Test System: Ames Salmonella typhimurium, Strain/Indicator: TA100, Metabolic Activation: Hamster, liver, S-9, Aroclor 1254, 10 and 30%, Method: Preincubation); “inactive; negative” (Test System: Ames Salmonella typhimurium, Strain/Indicator: TA100, Metabolic Activation: None, Method: Preincubation); “inactive; negative” (Test System: Ames Salmonella typhimurium, Strain/Indicator: TA100, Metabolic Activation: Rat, liver, S-9, Aroclor 1254, 10 and 30%, Method: Preincubation); “inactive; negative” (Test System: Ames Salmonella typhimurium, Strain/Indicator: TA1535, Metabolic Activation: Hamster, Liver, S-9, Aroclor 1254, 10 and 30%, Method: Preincubation); “inactive; negative” (Test System: Ames Salmonella typhimurium, Strain/Indicator: TA1535, Metabolic Activation: None, Method: Preincubation). Besides, the mutagenic call runs as follows: (Test System: Ames Salmonella typhimurium, Strain/Indicator: TA1535, Metabolic Activation: Rat, liver, S-9, Aroclor 1254, 10 and 30%, Method: Preincubation) “inactive; negative”; (Test System: Ames Salmonella typhimurium, Strain/Indicator: TA1537, Metabolic Activation: Rat, liver, S-9, Aroclor 1254, 30%, Method: Preincubation) “inactive; negative”.

For `CCN(CC)CCCC(C)Nc1cc(OC)cc2cccnc12` (configuration not stated), the mutagenic call is “inactive; negative” under setting [1]; “inactive; negative” (Test System: AMES SALMONELLA TYPHIMURIUM, Strain/Indicator: TA97, Metabolic Activation: RAT, LIVER, S-9, PHENOBARBITAL AND BETA-NAPHTHOFLAVONE, Method: PREINCUBATION); “active; positive” under setting [2]; “inactive; negative” (Test System: AMES SALMONELLA TYPHIMURIUM, Strain/Indicator: TA98, Metabolic Activation: RAT, LIVER, S-9, PHENOBARBITAL AND BETA-NAPHTHOFLAVONE, Method: PREINCUBATION); “inactive; negative” under setting [3]; “inactive; negative” (Test System: AMES SALMONELLA TYPHIMURIUM, Strain/Indicator: TA100, Metabolic Activation: RAT, LIVER, S-9, PHENOBARBITAL AND BETA-NAPHTHOFLAVONE, Method: PREINCUBATION). Also, the mutagenic call was “inactive; negative” (Test System: AMES SALMONELLA TYPHIMURIUM, Strain/Indicator: TA102, Metabolic Activation: NONE, Method: PREINCUBATION); “inactive; negative” (Test System: AMES SALMONELLA TYPHIMURIUM, Strain/Indicator: TA102, Metabolic Activation: RAT, LIVER, S-9, PHENOBARBITAL AND BETA-NAPHTHOFLAVONE, Method: PREINCUBATION); “inactive; negative” (Test System: E.COLI, Strain/Indicator: WP2UVRA/PKM101, Metabolic Activation: NONE, Method: PREINCUBATION); “inactive; negative” (Test System: E.COLI, Strain/Indicator: WP2UVRA/PKM101, Metabolic Activation: RAT LIVER S-9, PHENOBARBITAL AND 5,6-BENZOFLAVONE, Method: PREINCUBATION).

For `CC(C)[C@](O)(C(=O)O)[C@@H](C)O`, the mutagenic call is “inactive; negative” (Test System: AMES SALMONELLA TYPHIMURIUM, Strain/Indicator: TA100, Metabolic Activation: HAMSTER, LIVER, S-9, PCB, Method: PREINCUBATION) and “inactive; negative” (Test System: AMES SALMONELLA TYPHIMURIUM, Strain/Indicator: TA100, Metabolic Activation: RAT, LIVER, S-9, PCB, Method: PREINCUBATION).

In the case of `Cc1c[nH]c(=O)[nH]c1=O`, the mutagenic call (Test System: CHINESE HAMSTER V-79, Strain/Indicator: V-79 (HPRT)/6-THIOGUANINE, Metabolic Activation: NONE, Method: STANDARD PLATE) was “inactive; negative”.

Source of the values: PubChem BioAssay AID1259407 (Chemical Carcinogenesis Research Information System (CCRIS), 2018).
